The source of these data is EPA's ToxValDB 9.5 (doi:10.2903/j.efsa.2016.4504).

One series deals with Colinus virginianus. The settings on record: oral; for LEC: diet.
In a further series the test system is Folsomia candida. The settings on record: chronic/long-term.
For a further series, the system named is Apis mellifera. The settings on record: acute, mortality.
For the next series, the system named is Neomysis kadiakensis. The settings on record: chronic/long-term; duration: 32 days; reproduction.
The test system of another series is Canidae. The settings on record: chronic; oral; Dog Other; gross pathology.
Another series has as its system Aphidius rhopalosiphi. Description: LR50; higher = less toxic. The settings on record: not reported; mortality.
[1] abbreviates: short-term, duration: 28 days, oral, diet, no effects.

The term NOAEL denotes the highest dose or exposure tested at which no adverse effect was seen. Turning to `O=C(O)c1cc(C(F)(F)F)[nH]n1` [5-(Trifluoromethyl)-1H-pyrazole-3-carboxylic acid], the no observed adverse effect level (NOAEL) in the series with Rattus norvegicus (setting [1]) is 1160 mg/kg-day.
Molecule `O=C(O)c1cc(C(F)(F)F)nn1[C@@H]1O[C@H](CO)[C@@H](O)[C@H](O)[C@H]1O` displayed an NOAEL with Rattus norvegicus (setting [1]) of 1160 mg/kg-day.
For `Cc1cc(C(F)(F)F)nn1CC(=O)N1CCC(c2nc(C3=NOC(c4c(F)cccc4F)C3)cs2)CC1` (configuration not stated) [Oxathiapiprolin], the LC50 is > 0.65 µg/mL in the series with Cyprinodon variegatus (acute, duration: 96 hours, mortality) and > 500 mg/kg in the series on Tagia sp. (acute). Further, the NOEC in the series on Cyprinodon variegatus (chronic/long-term, duration: 35 days, growth) came out at 0.34 mg/L; with Folsomia candida, 12.5 mg/kg; with Tagia sp. (chronic/long-term) it was 15.4 mg/kg; in the series with Neomysis kadiakensis, 0.058 mg/L. Moreover, the LEL in the series with Colinus virginianus (acute) is > 4250 mg/kg-day. Besides, the LEC with Colinus virginianus (chronic) is 107 mg/kg-day; in the series with Colinus virginianus (short-term) it was > 1280 mg/kg-day. The LD50 was > 5000 mg/kg with Rattus norvegicus (acute, oral, mortality); > 100 µg/piece with Apis mellifera (dermal); > 40.3 µg/piece with Apis mellifera (oral, unspecified). In addition, the NOAEL in the series on Rattus norvegicus (reproduction developmental, other) stood at 86.4 mg/kg-day; with Canidae, 13.6 mg/kg-day. The same molecule returned an LR50 in the series on Aphidius rhopalosiphi of 116 g/ha.
